According to patent US7338959B2, “Diamino-pyrimidines and their use as angiogenesis inhibitors” (SmithKline Beecham Corporation, priority 2002, dated 2008):
Where a name gives a salt, the structure may show the parent alone.

Experiments:
[1] = molecular target: T1, GST-VEGFR2 (Homo sapiens, UniProt P35968); assay: VEGF-R2 enzyme assay (VEGF-E), LANCE method; format: biochemical; settings: GST-VEGFR2, 75 uM ATP, biotinylated peptide
T1 construct: baculovirus expressed recombinant constructs of the intracellular domains of human TIE2 tagged by GST; made in house
T1 sequence (P35968 786-1356 limits assumed): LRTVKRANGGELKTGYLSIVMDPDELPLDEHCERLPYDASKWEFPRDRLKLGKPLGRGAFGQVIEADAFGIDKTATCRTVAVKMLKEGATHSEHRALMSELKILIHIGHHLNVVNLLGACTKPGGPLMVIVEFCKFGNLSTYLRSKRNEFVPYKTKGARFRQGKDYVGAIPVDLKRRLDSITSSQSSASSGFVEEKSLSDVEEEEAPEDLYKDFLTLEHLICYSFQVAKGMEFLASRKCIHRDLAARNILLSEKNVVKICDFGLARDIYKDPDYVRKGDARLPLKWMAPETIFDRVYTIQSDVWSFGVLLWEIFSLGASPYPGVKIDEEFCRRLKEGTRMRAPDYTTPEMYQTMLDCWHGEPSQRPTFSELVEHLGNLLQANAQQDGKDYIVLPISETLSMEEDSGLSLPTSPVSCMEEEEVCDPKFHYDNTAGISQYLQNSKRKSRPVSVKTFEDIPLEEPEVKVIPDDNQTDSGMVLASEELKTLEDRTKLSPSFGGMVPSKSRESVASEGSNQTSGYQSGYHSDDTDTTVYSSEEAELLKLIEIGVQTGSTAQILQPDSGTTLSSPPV
Source text: VEGF-R2 Enzyme Assay (VEGF-E)
The VEGF enzyme assay used the LANCE method (Wallac) and GST-VEGFR2, baculovirus expressed recombinant constructs of the intracellular domains of human TIE2 tagged by GST. The method measured the ability of the purified enzymes to catalyse the transfer of the γ-phosphate from ATP onto tyrosine residues in a biotinylated synthetic peptide, (biotin-aminohexyl-EEEEYFELVAKKKK-NH2). This peptide phosphorylation was detected using the following procedure: GST-VEGFR2 was incubated for 40-60 mins at room temperature with 75 uM ATP, 5 mM MgCl2, 0.1 mM DTT, 0.1 mg/mL BSA and the test compound (diluted from a 10 mM stock in DMSO for desired concentration) in 100 mM HEPES buffer. The reaction was stopped by the addition of EDTA (final concentration 50 mM). Streptavidin linked-APC (allophycocyanin, Molecular Probe) and Europium-labeled anti-phosphorylated tyrosine antibody (Wallac) were then added at the final concentration of 15 nM and 1 nM, respectively. The APC signal was measured using an ARVO multilabel counter (Wallac Berthold, Japan). The percent inhibition of activity was calculated relative to blank control wells. The concentration of test compound that inhibits 50% of activity (IC50) was interpolated using nonlinear regression (Levernberg-Marquardt) and the equation, y=Vmax (1−x/(K+x))+Y2, where “K” was equal to the IC50. The IC50 values were converted to pIC50 values, i.e., −log IC50 in Molar concentration.

[2] = tested on: Human umbilical cord endothelial cells (HUVEC); assay: VEGF-driven cellular proliferation assay: BrdU incorporation assay (VEGF-C); format: cell-based; settings: 20 ng/ml VEGF
Protocol: VEGF-Driven Cellular Proliferation Assay: BrdU Incorporation Assay (VEGF-C)
Human umbilical cord endothelial cells (HUVEC, Clonetics, CC2519) were passaged in Type I collagen-coated 100-mm petridishes in EGM-MV medium (Clonetics, CC3125) at 37 C in a humidified 5% CO2, 95% air incubator. (HUVEC passaged more than 6 times in vitro were discarded and not subjected to assaying.) The cells were harvested using trypsin/EDTA, counted using a haemocytometer and plated at 5000 cells/well in a Type I-collagen coated 96-well plate (Becton Dickinson, 354407) in M199 medium (Gibco BRL, 12340-030) containing 5% FBS (Hyclone, A 1115-L) and gentamicin (at 50 ug/ml, Gibco BRL). After incubation overnight at 37° C., the media were replaced with 100 ul of M199 serum-free medium containing compounds at various concentrations with 0.6% DMSO and gentamicin. The compounds were diluted in serum-free M199 medium from 10 mM stock solutions prepared in 100% DMSO. After a 30 min incubation at 37° C., the cells were fed with 100 ul of serum-free M199 medium containing gentamicin, 0.2% culture-grade bovine serum albumin (BSA, Sigma A1993) and 20 ng/ml of VEGF (REtD systems, 293-VE) or 0.6 ng/ml of basic FGF (REtD systems, 233-FB), and cultured at 37° C. for another 24 h. The cells were pulsed with bromodeoxyuridine (BrdU at 10 uM in serum-free M199) at 37° C. for an additional 24 h. The incorporation of BrdU into the proliferating HUVEC were analyzed using BrdU Cell Proliferation ELISA (Roche Molecular Biochemicals, 1647229) according to the manufacturer's protocols. The optical density at 450 nm was measured with a multilabel counter (ARVO SX, Wallac). The percent inhibition of cell growth was calculated relative to blank control wells. The concentration of test compound that inhibits 50% of cell growth (IC50) was interpolated using nonlinear regression (Levernberg-Marquardt) and the equation, y=Vmax (1−x/(K+x))+Y2, where “K” was equal to the IC50. The IC50 values were converted to pIC50 values, i.e., −log IC50 in Molar concentration.

[3] = molecular target: Recombinant GST-Tie2 (Homo sapiens, UniProt Q02763); assay: Tie2 fluorescence polarization kinase activity assay (TIE2-FP); format: biochemical; settings: activated Tie2, 200 μM ATP, peptide substrate
Recombinant GST-Tie2, sequence (Q02763 23-1124): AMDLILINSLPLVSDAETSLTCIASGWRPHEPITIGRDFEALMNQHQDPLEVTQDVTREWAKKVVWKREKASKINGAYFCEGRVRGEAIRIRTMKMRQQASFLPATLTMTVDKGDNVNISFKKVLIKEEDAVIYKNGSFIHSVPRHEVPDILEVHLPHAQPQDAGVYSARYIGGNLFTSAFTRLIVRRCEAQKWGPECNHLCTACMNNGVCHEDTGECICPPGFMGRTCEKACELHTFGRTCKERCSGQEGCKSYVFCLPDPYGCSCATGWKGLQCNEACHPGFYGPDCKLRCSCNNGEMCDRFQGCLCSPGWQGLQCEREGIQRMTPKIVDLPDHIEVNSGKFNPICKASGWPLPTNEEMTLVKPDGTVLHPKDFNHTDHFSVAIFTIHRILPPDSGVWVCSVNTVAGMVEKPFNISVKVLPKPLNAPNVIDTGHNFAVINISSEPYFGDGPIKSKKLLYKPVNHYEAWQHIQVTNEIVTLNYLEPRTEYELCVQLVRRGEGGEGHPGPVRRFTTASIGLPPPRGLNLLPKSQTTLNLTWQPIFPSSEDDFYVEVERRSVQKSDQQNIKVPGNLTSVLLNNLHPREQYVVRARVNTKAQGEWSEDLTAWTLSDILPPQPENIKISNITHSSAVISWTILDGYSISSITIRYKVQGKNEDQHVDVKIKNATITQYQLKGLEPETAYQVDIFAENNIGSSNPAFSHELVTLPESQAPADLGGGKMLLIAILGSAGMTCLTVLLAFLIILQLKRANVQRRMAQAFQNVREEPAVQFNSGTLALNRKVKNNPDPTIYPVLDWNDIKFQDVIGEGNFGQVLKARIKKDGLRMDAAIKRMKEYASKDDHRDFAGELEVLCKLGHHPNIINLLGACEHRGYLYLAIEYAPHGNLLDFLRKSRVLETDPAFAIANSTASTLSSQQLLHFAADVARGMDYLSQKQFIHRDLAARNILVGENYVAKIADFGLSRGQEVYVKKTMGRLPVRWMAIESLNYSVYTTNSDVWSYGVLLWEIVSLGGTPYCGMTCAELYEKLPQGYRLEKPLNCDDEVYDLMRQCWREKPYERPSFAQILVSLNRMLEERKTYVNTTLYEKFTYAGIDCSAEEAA
Protocol: Tie2 Fluorescence Polarization Kinase Activity Assay: (TIE2-FP)
Activation of Recombinant Tie2 Activation:
Recombinant GST-Tie2 was activated by incubating the enzyme in 20 mM Tris-HCl, pH 7.5, 12 mM MgCl2, 100 mM NaCl, 20 μM sodium vanidate, 1 mM DTT and 300 μM ATP at room temperature for 2 hours. The activation mixture was then passed through a NAP-25 desalting column (Pharmacia Biotech cat. no. 17-0852-02) to remove the free ATP. The activated enzyme was stored as aliquots at −80° C. in 20 mM Tris-HCl, pH 7.5 and 100 mM NaCl.
The final assay conditions were 50 mM HEPES, pH 7.5, 5% DMSO (when screening compounds), 200 μM ATP, 5 mM MgCl2, 1 mM DTT, 50 μM sodium vanidate, 1 nM activated enzyme, and 200 μM peptide. IC50's of compounds were measured under subsaturating ATP (200 μM) and varing concentrations of activated Tie2 and peptide substrate (RFWKYEFWR-OH; MW 1873 Da, TFA salt). Panvera Anti-phosphotyrosine antibody (Cat#P2840) and PTK Green Tracer (Cat#P2842) were used to detect the phosphorylated peptide. Polarization was measured on a TECAN Polarion in 138-second cycles for 30 minutes at room temperature. IC50's were then determined from the % polarization using normal calculation methods.

| Compound | IC50 [1] [nM] | IC50 [2] [nM] | IC50 [3] [nM] | VEGF-E [1] | TIE2-FP [3] |
| --- | --- | --- | --- | --- | --- |
| CN(c1ccc2c(c1)nc(Nc1ccccc1)n2C)c1ccnc(Nc2ccc(CS(C)(=O)=O)cc2)n1 [Example 5, N^5,1-Dimethyl-N^5-[2-({4-[(methylsulfonyl)methyl]phenyl}amino)pyrimidin-4-yl]-N^2-phenyl-1H-benzimidazole-2,5-diamine trifluoroacetic acid] | < 100 | < 100 | – | – | – |
| CNc1nc2cc(N(C)c3ccnc(Nc4ccc(CS(C)(=O)=O)cc4)n3)ccc2n1C [Example 3, hydrochloride] | < 100 | < 100 | – | – | – |
| CC(C)Nc1nc2cc(N(C)c3ccnc(Nc4ccc(CS(C)(=O)=O)cc4)n3)ccc2n1C [Example 1, N^2-isopropyl-N^5,1-dimethyl-N^5-[2-({4-[(methylsulfonyl)methyl]phenyl}amino)pyrimidin-4-yl]-1H-benzimidazole-2,5-diamine hydrochloride] | < 100 | < 100 | – | – | – |
| CN(c1ccc2c(c1)nc(Nc1ccc(C(F)(F)F)cc1)n2C)c1ccnc(Nc2ccc(CS(C)(=O)=O)cc2)n1 [Example 110, N^1-Methyl-N^5-[2-(4-Methanesulfonymethyl-phenylamino)-pyrimidin-4-yl]-N^5-methyl-N^2-(4-trifluoromethyl-phenyl)-1H-benzoimidazole-2,5-diamine] | < 100 | – | < 100 | – | – |
| CN(c1ccc2c(c1)nc(NCc1ccccc1)n2C)c1ccnc(Nc2ccc(CS(C)(=O)=O)cc2)n1 [Example 4, N^2-benzyl-N^5,1-dimethyl-N^5-[2-({4-[(methylsulfonyl)methyl]phenyl}amino)pyrimidin-4-yl]-1H-benzimidazole-2,5-diamine hydrochloride] | < 100 | < 100 | – | – | – |
| CC(C)Nc1nc2cc(N(C)c3ccnc(Nc4ccc(CS(N)(=O)=O)cc4)n3)ccc2n1C [Example 2, hydrochloride] | < 100 | < 100 | – | – | – |
| CONS(=O)(=O)c1cc(Nc2nccc(N(C)c3ccc4c(c3)nc(NCc3ccccc3)n4C)n2)ccc1C [Example 6, 5-({4-[[2-(Benzylamino)-1-methyl-1H-benzimidazol-5-yl](methyl)amino]pyrimidin-2-yl}amino)-N-methoxy-2-methylbenzenesulfonamide] | < 100 | < 100 | – | – | – |
| CN(c1ccc2c(c1)nc(NC(=O)C1(c3ccc(Cl)c(Cl)c3)CC1)n2C)c1ccnc(Nc2cccc(CS(C)(=O)=O)c2)n1 [Example 229, 1-(3,4-Dichloro-phenyl)-cyclopropanecarboxylic acid ({[2-(3-methanesulfonylmethyl-phenylamino)-pyrimidin-4-yl]-methyl-amino}-methyl-1H-benzoimidazol-2-yl)-amide] | 100 to 1000 | – | 1000 to 10000 | – | – |
| CN(c1ccc2c(c1)nc(NC(=O)Cc1cccs1)n2C)c1ccnc(Nc2cccc(CS(C)(=O)=O)c2)n1 [Example 169, N-({[2-(3-Methanesulfonylmethyl-phenylamino)-pyrimidin-4-yl]-methyl-amino}-methyl-1H-benzoimidazol-2-yl)-C-thiophen-2-yl-acetamide] | < 100 | – | 1000 to 10000 | – | – |
| N-({[2-(4-Methanesulfonylmethyl-phenylamino)-pyrimidin-4-yl]-methyl-amino}-methyl-1H-benzoimidazol-2-yl)-dimethyl-butyramide [Example 177] | – | – | – | +++ (+++ = pIC50 of >7.0) | + (+ = pIC50 of 5.0-6.0) |
| Thiophene-2-carboxylic acid ({[2-(3-methanesulfonylmethyl-phenylamino)-pyrimidin-4-yl]-methyl-amino}-methyl-1H-benzoimidazol-2-yl)-amide [Example 167] | – | – | – | +++ (+++ = pIC50 of >7.0) | + (+ = pIC50 of 5.0-6.0) |
| Cn1c(Nc2cc(C(C)(C)C)on2)nc2cc(Nc3ccnc(Nc4ccc(CS(C)(=O)=O)cc4)n3)ccc21.O=C(O)C(F)(F)F [Example 135, N^2-(5-tert-Butyl-isoxazol-3-yl)-N^5-[2-(4-methanesulfonylmethyl-phenylamino)-pyrimidin-4-yl]-1-methyl-1-1H-benzoimidazole-2,5-diamine trifluoroacetate] | – | – | – | +++ (+++ = pIC50 of >7.0) | + (+ = pIC50 of 5.0-6.0) |
| CN(c1ccc2c(c1)nc(Nc1ccc(Cl)cc1)n2C)c1ccnc(Nc2ccc(CS(C)(=O)=O)cc2)n1 [Example 112] | < 100 | – | < 100 | – | – |
| Cc1cc(CC(=O)Nc2nc3cc(N(C)c4ccnc(Nc5ccc(CS(C)(=O)=O)cc5)n4)ccc3n2C)on1 [Example 173, N-({[2-(4-Methanesulfonylmethyl-phenylamino)-pyrimidin-4-yl]-methyl-amino}-methyl-1H-benzoimidazol-2-yl)-2-(3-methyl-isoxazol-5-yl)-acetamide] | – | – | – | +++ (+++ = pIC50 of >7.0) | + (+ = pIC50 of 5.0-6.0) |
